Source: patent US20100099564A1, “HERBICIDE COMBINATION COMPRISING DIMETHOXYTRIAZINYL-SUBSTITUTED DIFLUOROMETHANESULFONYLANILIDES” (BAYER CROPSCIENCE AG, priority 2008, published 2010)

How the values were obtained:
Assay type in all cases: in vivo
Viola tricolor (VIOTR) = test: Post-emergence action, greenhouse pot test, visual scoring: VIOTR; settings: rate (5) 4
Method: (§1) Seeds or rhizome pieces of mono- and dicotyledonous harmful and useful plants were placed in peat pots (diameter 4 cm) filled with sandy loam and then covered with soil. The pots were kept in a greenhouse under optimum conditions. In addition, harmful plants encountered in paddy rice cultivation were cultivated in pots with a water level 2 cm above the soil surface.
(§2) About three weeks after the start of the cultivation, the test plants were treated at the 2- to 3-leaf stage. The herbicides, formulated as powder or liquid concentrates, were, either alone or in the combinations according to the invention, sprayed in various dosages on to the green parts of the plants using an application rate of 600 l of water/ha (converted). For further cultivation of the plants, the pots were then again kept under optimum conditions in a greenhouse.
(§3) The visual scoring of the herbicidal effects was carried out in intervals up to 21 days after the treatment. Scoring was carried out in percent in comparison to the untreated control plants. 0%=no herbicidal activity, 100%=complete herbicidal activity=complete kill.
(§4) The percentages from the treatments with the herbicides alone (=individual application) and with the combinations according to the invention (=mixtures) were employed to calculate interactions using the method of Colby. When the observed efficacies of the mixtures exceed the formal sum of the values of the tests with individual applications, they also exceed the expected value according to Colby, which is calculated using the formula below (cf. S. R. Colby; in Weeds 15 (1967) pp. 20 to 22):
(§5) Here: • A, B=activity of components A and B in percent at a dosage of a and b g of ai/ha (=gramm of active substance per hectare), respectively. • E=expected value in % at a dosage of a+b g of ai/ha.
(§6) The combinations according to the invention of herbicides from group (A) with herbicides from group (B) were tested on a broad spectrum of important harmful plants (weed grasses, broad-leaved weeds/Cyperaceae) and useful plants: Triticum aestivum (TRZAS), Stellaria media (STEME), Lolium multiflorum (LOLMU), Veronica persica (VERPE), Alopecurus myosuroides (ALOMY), Matricaria inodora (MATIN), Brassica napus (BRSNW), Viola tricolor (VIOTR), Avena fatua (AVEFA), Amaranthus retroflexus (AMARE), Zea mays (ZEAMX), Pharbitis purpurea (PHBPU), Setaria viridis (SETVI), Fallopia (ex Polygonum) convolvulus (POLCO), Echinochloa crusgaffi (ECHCG), Abuthilon theophrasti (ABUTH), Cyperus esculentus (CYPES), Oryza sativa (ORYSA).
(§7) Of particular interest are the results shown in the tables (Tab.) below, where the following key is used: • (1) EPPO code (former Bayer code) for the treated plant (see above) • (2) Time of scoring: DAT (days after treatment) • (3) Component A tested (identifying number) • (4) Component B tested (identifying number) • (5) Dosage component A [g of ai/ha] • (6) Dosage component B [g of ai/ha] • (7) % activity found • (8) E value (calculated according to Colby; see above) • (9) Comments: “SYNERGY” =synergistic interaction (E value<% activity found); “SAFENING”=safener action on useful plant (E value>% activity found)

[1] = test system: Matricaria inodora (MATIN); test: Post-emergence action, greenhouse pot test, visual scoring: MATIN
Method: as §1, §2, §3, §4, §5

Avena fatua (AVEFA) = test: Post-emergence action, greenhouse pot test, visual scoring: AVEFA; settings: 21 DAT
Method: as §1, §2, §3, §4, §5, §6, §7

Stellaria media (STEME) = test: Post-emergence action, greenhouse pot test, visual scoring: STEME; settings: 10 DAT
Method: as §1, §2, §3, §4, §5, §6, §7

[2] = test system: Triticum aestivum (TRZAS); test: Post-emergence action, greenhouse pot test, visual scoring: TRZAS
Method: as §1, §2, §3, §4, §5, §6, §7

[3] = test system: Pharbitis purpurea (PHBPU); test: Post-emergence action, greenhouse pot test, visual scoring: PHBPU
Method: as §1, §2, §3, §4, §5, §6, §7

[4] = test system: Alopecurus myosuroides (ALOMY); test: Post-emergence action, greenhouse pot test, visual scoring: ALOMY; settings: 21 DAT
Method: as §1, §2, §3, §4, §5

[5] = test system: Echinochloa crusgaffi (ECHCG); test: Post-emergence action, greenhouse pot test, visual scoring: ECHCG; settings: for % activity found: 21 DAT
Method: as §1, §2, §3, §4, §5, §6, §7

[6] = test system: Cyperus esculentus (CYPES); test: Post-emergence action, greenhouse pot test, visual scoring: CYPES
Method: as §1, §2, §3, §4, §5

[7] = test system: Lolium multiflorum (LOLMU); test: Post-emergence action, greenhouse pot test, visual scoring: LOLMU; settings: for (7) % activity found: 21 DAT
Method: as §1, §2, §3, §4, §5, §6, §7

Veronica persica (VERPE) = test: Post-emergence action, greenhouse pot test, visual scoring: VERPE
Method: as §1, §2, §3, §4, §5, §6, §7

Setaria viridis (SETVI) = test: Post-emergence action, greenhouse pot test, visual scoring: SETVI; settings: 21 DAT
Method: as §1, §2, §3, §4, §5, §6, §7

Oryza sativa (ORYSA) = test: Post-emergence action, greenhouse pot test, visual scoring: ORYSA
Method: as §1, §2, §3, §4, §5, §6, §7

[8] = test system: Fallopia (ex Polygonum) convolvulus (POLCO); test: Post-emergence action, greenhouse pot test, visual scoring: POLCO; settings: 21 DAT
Method: as §1, §2, §3, §4, §5, §6, §7

[9] = test system: Abuthilon theophrasti (ABUTH); test: Post-emergence action, greenhouse pot test, visual scoring: ABUTH
Method: as §1, §2, §3, §4, §5, §6, §7

Zea mays (ZEAMX) = test: Post-emergence action, greenhouse pot test, visual scoring: ZEAMX
Method: as §1, §2, §3, §4, §5, §6, §7

[10] = test system: Amaranthus retroflexus (AMARE); test: Post-emergence action, greenhouse pot test, visual scoring: AMARE
Method: as §1, §2, §3, §4, §5

COc1nc(OC)nc(C(=O)c2cccc(F)c2N(C)S(=O)(=O)C(F)F)n1 [A-1]
(7) % activity found (Viola tricolor (VIOTR); 10 DAT): 20% | (7) % activity found (Viola tricolor (VIOTR); 21 DAT): 0% | % activity found ([1]; 10 DAT, A 12 g of ai/ha): 70% | (7) % activity found (Avena fatua (AVEFA); rate (5) 4): 10% | (7) % activity found (Avena fatua (AVEFA); rate (5) 12): 30% | % activity found (Stellaria media (STEME); dose (5) 4): 70% | % activity found (Stellaria media (STEME); dose (5) 12): 70% | (7) % activity found ([2]; 10 DAT, rate (5) 4): 0% | (7) % activity found ([2]; 10 DAT, rate (5) 12): 0% | (7) % activity found ([2]; 21 DAT, rate (5) 4): 0% | (7) % activity found ([2]; 21 DAT, rate (5) 12): 0% | % activity found ([3]; 10 DAT, dose (5) 4): 60% | % activity found ([3]; 21 DAT, dose (5) 4): 60% | (7) % activity found ([3]; 21 DAT, rate (5) 12): 65% | (7) % activity found ([4]; rate (5) 4): 40% | (7) % activity found ([4]; rate (5) 12): 50% | (7) % activity found ([5]; 10 DAT, rate (5) 12): 70% | % activity found ([5]; dose (5) 4): 85% | (7) % activity found ([6]; 10 DAT, rate (5) 4): 70% | (7) % activity found ([6]; 10 DAT, rate (5) 12): 70% | (7) % activity found ([6]; 21 DAT, rate (5) 4): 80% | (7) % activity found ([6]; 21 DAT, rate (5) 12): 80% | (7) % activity found ([7]; rate (5) 4): 0% | (7) % activity found ([7]; rate (5) 12): 10% | (7) % activity found (Veronica persica (VERPE); 21 DAT, rate (5) 4): 30% | (7) % activity found (Veronica persica (VERPE); 21 DAT, rate (5) 12): 40% | (7) % activity found (Setaria viridis (SETVI); rate (5) 4): 0% | (7) % activity found (Setaria viridis (SETVI); rate (5) 12): 20% | (7) % activity found (Oryza sativa (ORYSA); 10 DAT, rate (5) 4): 10% | (7) % activity found (Oryza sativa (ORYSA); 10 DAT, rate (5) 12): 10% | (7) % activity found (Oryza sativa (ORYSA); 21 DAT, rate (5) 4): 0% | (7) % activity found (Oryza sativa (ORYSA); 21 DAT, rate (5) 12): 10% | (7) % activity found ([8]; rate (5) 4): 75% | (7) % activity found ([8]; rate (5) 12): 70% | % activity found ([9]; 21 DAT, dose (5) 4): 85% | % activity found ([9]; 21 DAT, dose (5) 12): 85% | (7) % activity found (Zea mays (ZEAMX); 10 DAT, rate (5) 4): 0% | (7) % activity found (Zea mays (ZEAMX); 10 DAT, rate (5) 12): 0% | (7) % activity found (Zea mays (ZEAMX); 21 DAT, rate (5) 12): 0%

CCSC(=O)N1CCCCCC1 [B6-7, S-ethyl hexahydro-1H-azepine-1-carbothioate]
% activity found ([1]; 10 DAT, dose (6) 900): 20% | % activity found ([1]; 21 DAT, dose (6) 300): 30% | % activity found ([1]; 21 DAT, dose (6) 900): 30% | % activity found (Avena fatua (AVEFA); dose (6) 300): 0% | % activity found (Stellaria media (STEME); dose (6) 300): 0% | % activity found (Stellaria media (STEME); dose (6) 900): 0% | % activity found ([3]; 10 DAT, dose (6) 300): 0% | % activity found ([3]; 10 DAT, dose (6) 900): 0% | % activity found ([3]; 21 DAT, dose (6) 300): 0% | % activity found ([3]; 21 DAT, dose (6) 900): 0% | % activity found ([5]; dose (6) 300): 0% | % activity found ([5]; dose (6) 900): 0% | % activity found ([10]; 10 DAT, dose (6) 300): 0% | % activity found ([10]; 10 DAT, dose (6) 900): 0% | % activity found ([10]; 21 DAT, dose (6) 300): 0% | % activity found ([10]; 21 DAT, dose (6) 900): 0% | % activity found ([7]; 10 DAT, dose (6) 900): 20% | % activity found (Veronica persica (VERPE); 10 DAT, dose (6) 900): 0% | % activity found (Veronica persica (VERPE); 21 DAT, dose (6) 300): 0% | % activity found ([8]; dose (6) 300): 0% | % activity found ([8]; dose (6) 900): 0% | % activity found ([9]; 10 DAT, dose (6) 300): 0% | % activity found ([9]; 10 DAT, dose (6) 900): 0%
